The values below come from article PMC5438914 (SLAS discovery, 2016).

pIC50: −log10 of the molar value. Where two headings read alike, the source gives them in different places. Some results are limits rather than exact numbers.

Data set [1] relates to S. aureus. In words: time-kill experiments. The note with it: 4× MIC; for bacteriostatic or bactericidal: 0 to 24 h.
The subject of data set [2] is human embryonic kidney 293 cells (HEK-293).
The subject of data set [3] is EF-Tu, EF-Ts, EF-G, and PheRS. In words: specificity assays against the accessory proteins of the A/T system. The note with it: tested against each of the four accessory proteins. It counts as biochemical, Pseudomonas aeruginosa.
Data set [4] deals with H. influenzae. In words: time-kill experiments. Conditions: 4× MIC; for bacteriostatic or bactericidal: 0 to 24 h.
For data set [5], the target named is T1, PheRS (Pseudomonas aeruginosa, UniProt Q9I0A3+Q9I0A4). In words: competition assays with PheRS substrates ATP and Phe. The class given is biochemical. Conditions: IC50 at ATP 25-1000 µM or Phe 25-300 µM; data not shown.
The target of data set [6] is T1, PheRS. As to the kind of experiment: tRNA aminoacylation assay. The class given is biochemical.
Data set [7] has as its system human embryonic kidney 293 cells (HEK-293). In words: MTT cytotoxicity test. Conditions: HEK-293, MTT, 24 h.
Data set [8] addresses T2, human mitochondrial PheRS (hmPheRS) (Homo sapiens, UniProt O95363).
T2 sequence (O95363 1-451): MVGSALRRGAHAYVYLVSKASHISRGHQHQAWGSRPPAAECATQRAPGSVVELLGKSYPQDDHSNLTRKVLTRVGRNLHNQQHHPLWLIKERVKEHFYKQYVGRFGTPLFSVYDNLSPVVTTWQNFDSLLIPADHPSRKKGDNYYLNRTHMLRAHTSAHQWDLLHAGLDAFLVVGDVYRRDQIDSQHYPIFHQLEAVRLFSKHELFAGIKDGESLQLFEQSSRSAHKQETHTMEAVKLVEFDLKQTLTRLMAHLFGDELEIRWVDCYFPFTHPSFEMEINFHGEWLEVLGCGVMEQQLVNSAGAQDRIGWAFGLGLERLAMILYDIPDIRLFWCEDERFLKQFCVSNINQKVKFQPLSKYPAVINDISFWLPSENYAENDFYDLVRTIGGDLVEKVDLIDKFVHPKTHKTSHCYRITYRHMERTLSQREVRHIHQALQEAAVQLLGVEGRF
As to the kind of experiment: hmPheRS aminoacylation assay. It counts as biochemical. The note with it: 0.4 to 200 µM; at high concentrations.

Data set [9] concerns eukaryotic protein synthesis in wheat germ cell extract. As to the kind of experiment: wheat germ cell extract poly-Phe protein synthesis assay. It counts as biochemical. The note with it: at 30 µM.

T1 sequence (Q9I0A3 whole entry): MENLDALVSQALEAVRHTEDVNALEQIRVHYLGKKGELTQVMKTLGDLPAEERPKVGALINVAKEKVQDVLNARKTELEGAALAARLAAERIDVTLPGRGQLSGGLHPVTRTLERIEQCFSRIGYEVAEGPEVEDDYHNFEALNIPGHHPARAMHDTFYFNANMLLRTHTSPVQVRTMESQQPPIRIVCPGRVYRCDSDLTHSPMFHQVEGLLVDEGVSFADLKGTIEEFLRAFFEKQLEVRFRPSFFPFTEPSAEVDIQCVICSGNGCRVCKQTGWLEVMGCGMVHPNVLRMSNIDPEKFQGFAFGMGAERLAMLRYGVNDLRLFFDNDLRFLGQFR
T1 sequence (Q9I0A4 whole entry): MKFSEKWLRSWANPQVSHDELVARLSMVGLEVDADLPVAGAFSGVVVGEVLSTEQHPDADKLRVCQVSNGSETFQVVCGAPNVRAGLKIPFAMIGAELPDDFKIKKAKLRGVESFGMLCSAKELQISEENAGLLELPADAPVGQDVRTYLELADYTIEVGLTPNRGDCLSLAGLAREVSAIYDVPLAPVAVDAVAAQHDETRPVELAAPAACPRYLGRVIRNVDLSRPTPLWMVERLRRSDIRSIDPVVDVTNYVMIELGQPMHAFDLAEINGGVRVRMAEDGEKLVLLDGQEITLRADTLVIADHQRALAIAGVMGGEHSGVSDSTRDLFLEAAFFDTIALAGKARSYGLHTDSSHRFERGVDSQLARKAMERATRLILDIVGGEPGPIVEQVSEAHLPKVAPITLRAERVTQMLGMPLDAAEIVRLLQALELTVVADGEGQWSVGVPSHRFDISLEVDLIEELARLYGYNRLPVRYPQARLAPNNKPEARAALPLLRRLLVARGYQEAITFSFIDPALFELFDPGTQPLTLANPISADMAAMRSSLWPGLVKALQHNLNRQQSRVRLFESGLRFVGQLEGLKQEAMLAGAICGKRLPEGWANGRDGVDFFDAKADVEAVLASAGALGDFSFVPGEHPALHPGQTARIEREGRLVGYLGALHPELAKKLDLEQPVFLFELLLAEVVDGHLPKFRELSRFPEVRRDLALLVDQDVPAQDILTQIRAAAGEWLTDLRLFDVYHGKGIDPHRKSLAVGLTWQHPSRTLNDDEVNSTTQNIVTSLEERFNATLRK

As to `N=C(N)NN=C(/C=C/c1ccc([N+](=O)[O-])o1)/C=C/c1ccc([N+](=O)[O-])o1` [BT06D07, difurazone], the bacteriostatic or bactericidal result in data set [1] and in data set [4] was “bactericidal” in each case. Moreover, the “growth in time-kill cultures” value in data set [1] (up to 24 h) and in [4] (up to 24 h) was “inhibited the growth of both bacteria completely during all times tested” in each case. Further, the “IC50 (or CC50) for inhibition of cell growth” value in data set [2] is given as > 400 µg/mL. Further, the “specificity for a single component of the A/T assay” value in data set [3] was “did not inhibit an accessory protein”.

In the case of `O=C(N/N=C/c1ccc([N+](=O)[O-])o1)c1cc([N+](=O)[O-])cc([N+](=O)[O-])c1O` [BT06G06, nifursol], the bacteriostatic or bactericidal result in data set [1] and in [4] was “bacteriostatic” throughout. The “decrease in colony-forming units (CFU) compared with the control” value in data set [1] (during the first 6 h) and in data set [4] (during the first 6 h) was 2 to 4 log10 in each case. Moreover, in data set [3], the “specificity for a single component of the A/T assay” value is given as “specifically inhibit PheRS”. In data set [5], the “mechanism of inhibition with respect to ATP and Phe” value was “noncompetitive with both of the natural substrates”. In addition, the pIC50 in [6] was 4.22. Moreover, in data set [7], the “IC50 (or CC50) for inhibition of cell growth” value was 18.5 µg/mL. The “effect on the activity of hmPheRS” value in [8] is reported as “only modestly affected”.

As to `C[C@@H]1C[C@@H]([C@H](O)CC2CC(=O)NC(=O)C2)C(=O)[C@@H](C)C1` [cycloheximide], the “inhibition of protein synthesis” value in data set [9] was “greater than 80%”.
